Experiments:
[1] = biological target: T1, GST-RIPK2 fusion protein (human RIPK2, amino acids 1-310) (Homo sapiens, UniProt O43353); test: RIPK2 binding competition assay (TR-FRET, Tracer 199 displacement); settings: 10 nM Tracer 199, 1 nM GST-RIPK2, read-out: RIPK2 IC50
T1 construct: made in house; host or cells: baculovirus infected Sf9 cells
From the text: The ability of selected compounds of Formula (I) to inhibit the binding of an Alexa647-labelled ATP-competitive kinase inhibitor to a GST-RIPK2 fusion protein was quantified employing the TR-FRET-based RIPK2 binding competition assay as described in the following paragraphs.
Recombinant fusion protein of N-terminal Glutathione-S-Transferase (GST) and a fragment of human RIPK2 (amino acids 1-310 of accession number 043353), expressed in baculovirus infected Sf9 cells, purified via glutathione affinity chromatography, was used as GST-RIPK2 fusion protein. Tracer 199 from Life Technologies (catalogue no. PR9115B) was used as Alexa647-labelled ATP-competitive kinase inhibitor.
For the assay, 50 nL of a 100-fold concentrated solution of each test compound in DMSO was pipetted into either a black low volume 384-well microtiter plate or a black 1536-well microtiter plate (both Greiner Bio-One, Frickenhausen, Germany), 3 μL solution of Tracer 199 (16.7 nM=>final concentration in 5 μL assay volume is 10 nM) in aqueous assay buffer (25 mM Tris/HCl pH 7.5, 10 mM magnesium chloride (MgCl2), 5 mM β-glycerophosphate, 2.5 mM dithiothreitol (DTT), 0.5 mM ethylene glycol-bis(2-aminoethylether)-N,N,N′,N′-tetraacetic acid (EGTA), 0.5 mM sodium ortho-vanadate, 0.01% (w/v) bovine serum albumin (BSA), 0.005% (w/v) Pluronic F-127 (Sigma)) were added. Then the binding competition was started by the addition of 2 μL of a solution of the GST-RIPK2 fusion protein (2.5 nM=>final conc. in the 5 μL assay volume is 1 nM) and of Anti-GST-Tb (1.25 nM=>final conc. in the 5 μL assay volume is 0.5 nM), a Lumi4®—Tb cryptate-conjugated anti-GST antibody from PerkinElmer (catalogue no 61GSTTAH), in assay buffer.
The resulting mixture was incubated 45 min at 22° C. to allow the formation of a complex between the Tracer 199, the fusion protein and Anti-GST-Tb. Subsequently, the amount of this complex was evaluated by measurement of the resonance energy transfer from the Tb-cryptate to the Tracer 199. Therefore, the fluorescence emissions at 620 nm and 665 nm after excitation at 337 nm were measured in a TR-FRET reader, e.g. a Pherastar FS (BMG Labtechnologies, Offenburg, Germany) or a Viewlux (PerkinElmer). The ratio of the emissions at 665 nm and at 620 nm was taken as the measure of the amount of the complex. The data were normalized (assay reaction without inhibitor=0% activity, all other assay components but no GST-RIPK2 fusion protein=−100% activity).
Table A1 below lists IC50 values of selected compounds of Formula (I) measured in the RIPK2 binding competition assay.

[2] = biological target: T2, binding of His-XIAP(BIR2)-avi fusion protein to GST-RIPK2 fusion protein (RIPK2/XIAP) (Homo sapiens, UniProt O43353); test: RIPK2-XIAP binding competition PPI assay (TR-FRET); settings: RIPK2/XIAP binding competition PPI assay; for Emax: Amax, read-out: PPI Amax bin; for IC50: read-out: PPI IC50 bin
T2 construct: made in house; host or cells: baculovirus infected Sf9 cells
From the text: The ability of selected compounds of Formula (I) to inhibit the binding of an His-XIAP(BIR2)-avi fusion protein to a GST-RIPK2 fusion protein was quantified employing the TR-FRET-based competition assay as described in the following paragraphs.
Recombinant fusion protein of N-terminal Glutathione-S-Transferase (GST) and a fragment of human RIPK2 (amino acids 1-310 of accession number 043353), expressed in baculovirus infected Sf9 cells, purified via glutathione affinity chromatography, was used as GST-RIPK2 fusion protein. Recombinant fusion protein of N-terminal 6×Histidine (His), a fragment of human XIAP (amino acids 152-231 of accession number P98170), and C-terminal avi tag, expressed in baculovirus infected Sf9 cells, purified via Nickel NTA affinity chromatography, was used as the His-XIAP(BIR2)-avi fusion protein.
For the assay, a working solution of 1 nM GST-RIPK2, 25 nM His-XIAP(BIR2)-avi, 6 nM Anti-His-XL665 […] (Revvity Catalogue No. 61HISXLB), and 0.5 nM Anti-GST-Tb (Revvity Catalogue No. 61GSTTLB) in 25 mM Tris-HCl 7.5, 0.5 mM ethylene glycol-bis(2-aminoethylether)-N,N,N′,N′-tetraacetic acid (EGTA), 10 mM magnesium chloride (MgCl2), 2.5 mM dithiothreitol (DTT), 0.01% (w/v) bovine serum albumin (BSA), 0.005% (w/v) Pluronic F-127 (Sigma), 0.5 mM sodium ortho-vanadate, 5 mM β-Glycerophosphate disodium salt hydrate (BGP) was prepared. 50 nL of a 100-fold concentrated solution of each test compound in DMSO was dispensed via acoustic dispensing into a white low volume 384-well microtiter plate (Perkin Elmer Catalogue No. 6008280). Subsequently, 5 μL of the assay working solution were added.
The resulting mixture was incubated 120 min at 23° C. Subsequently, the amount of complex formed by the GST-RIPK2, XIAP(BIR2)-avi, Anti-His-XL665, and Anti-GST-Tb was evaluated by measurement of the resonance energy transfer from the Tb-cryptate to the XL665. Therefore, the fluorescence emissions at 520 nm and 665 nm after excitation at 337 nm were measured in a TR-FRET reader, e.g. a Pherastar FS (BMG Labtechnologies, Offenburg, Germany) or an Envision (PerkinElmer). The ratio of the emissions at 665 nm and at 520 nm was taken as the measure of the amount of the complex. The data were normalized (assay reaction without inhibitor=0% activity, 50 nM of GSK583=−100% activity).
For the RIPK2/XIAP binding competition PPI assay Amax values, “A” denotes an Amax of ≥80%; “B” denotes an Amax of 80%>B≥55; “C” denotes an Amax of 55%>C>30; and “D” denotes an Amax of ≤30%.

[3] = system: NF-κB pathway (SEAP) in THP1-Dual cells; test: THP-1 Dual cell SEAP assay (L18-MDP stimulated); assay type: cell-based; settings: Homo sapiens, THP1-Dual, read-out: NF-κB THP1 IC50 bin
Experimental: THP1-Dual™ cells (InvivoGen Cat #thpd-nfis) allow simultaneous assessment of the NF-κB pathway, by monitoring the activity of secreted embryonic alkaline phosphatase (SEAP) as well as the IRF pathway, by assessing the activity of a secreted luciferase (Lucia). Cells were cultured according to manufacturers' recommendations. For the assay, cell concentration was adjusted to 7.14×10^5 cells/mL in assay media (RPMI 1640, 2 mM L-Glutamine, 25 mM HEPES, 10% fetal bovine serum (heat-inactivated for 30 min at 56° C.), Pen-Strep (100 U/mL)) and 35 µL of cell suspension (˜25,000 cells) per well were added to a flat bottom 384-well plate (white opaque). Plate was centrifuged at 300 g for 2 min, compounds were added in serial dilution series according to the plate layout (volumes ˜500 nL-0.0152 nL) and plate was incubated at 37° C. in 5% CO2 for 30 min. Using assay media, a L18-MDP stock solution, that results in a final concentration of 10 ng/mL L18-MDP in each well when adding 15 μL to each well, was prepared. 15 μL of L18-MDP stock solution was added to each well, while 15 μL of assay media was added to the negative control wells. Plates were subsequently incubated at 37° C. in 5% CO2 overnight (20-24 h).
For the SEAP assay: without disturbing the cells at the bottom of the well, 15 μL supernatant was transferred to a clear 384-well flat bottom plate and 35 μL QUANTI-Blue Solution per well was added. Following a 2 h incubation at 37° C., the optical density (OD) was measured at 620-655 nm using a microplate reader (PheraStar FS microplate reader with protocol for OD 620-655 nm).
Values of media-only wells were subtracted and % inhibition for each compound concentration relative to the DMSO/L18-MDP-treated controls was calculated. Inhibition values+/−SD were fitted by non-linear regression using Prism software (GraphPad PRISM Software) to calculate IC50 values.

T1 sequence (O43353 1-310): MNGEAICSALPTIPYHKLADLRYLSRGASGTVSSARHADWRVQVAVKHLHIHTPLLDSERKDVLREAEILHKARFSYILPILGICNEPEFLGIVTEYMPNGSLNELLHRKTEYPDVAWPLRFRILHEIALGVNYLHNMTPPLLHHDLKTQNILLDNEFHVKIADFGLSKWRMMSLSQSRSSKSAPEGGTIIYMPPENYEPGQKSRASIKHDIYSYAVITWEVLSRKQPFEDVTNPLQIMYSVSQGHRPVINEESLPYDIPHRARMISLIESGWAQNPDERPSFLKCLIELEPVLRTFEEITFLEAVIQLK
T2 sequence (O43353 1-310 limits assumed): as the sequence (O43353 1-310) above

Row | Compound | IC50 [1] | Emax [2] | IC50 [2] | IC50 [3]
1 | CC(CO)COc1cc2ncc(-c3cc(F)c(N)nc3F)n2cc1S(=O)(=O)C(C)(C)C (racemic) [Example 174, 3-((3-(6-amino-2,5-difluoropyridin-3-yl)-6-(tert-butylsulfonyl)imidazo[1,2-a]pyridin-7-yl)oxy)-2-methylpropan-1-ol] | 1 to 2.5 nM | > 80% | 1 to 2.5 nM | 50 to 250 nM
2 | CC(C)(C)C(C)(O)c1cn2c(-c3cc(F)c(N)nc3F)cnc2cc1OCCO (single isomer, unassigned) [Example 295] | 2.5 to 20 nM | > 80% | 2.5 to 20 nM | > 1000 nM
3 | COc1cc2nc(Cl)c(-c3ccc(N)nc3F)n2cc1S(=O)(=O)C(C)(C)C [Example 10, 5-(6-(tert-butylsulfonyl)-2-chloro-7-methoxyimidazo[1,2-a]pyridin-3-yl)-6-fluoropyridin-2-amine] | > 20 nM | > 80% | > 20 nM | –
4 | CC(C)(C)C(C)(O)c1cn2c(-c3cc(F)c(N)nc3F)cnc2cc1OCCO (stereo not shown) [Example 193, 2-(3-(6-amino-2,5-difluoropyridin-3-yl)-7-(2-hydroxyethoxy)imidazo[1,2-a]pyridin-6-yl)-3,3-dimethylbutan-2-ol] | 2.5 to 20 nM | > 80% | – | –
5 | COc1cc2ncc(-c3cc(F)c(OC)c(NS(=O)(=O)c4cc(C)ns4)c3)n2cc1S(=O)(=O)C(C)(C)C [Example 289, N-(5-(6-(tert-butylsulfonyl)-7-methoxyimidazo[1,2-a]pyridin-3-yl)-3-fluoro-2-methoxyphenyl)-3-methylisothiazole-5-sulfonamide] | – | 30 to 55% | < 1 nM | 50 to 250 nM
6 | COc1cc2ncc(-c3cc(F)c(OC)c(NS(=O)(=O)c4cnc(C)o4)c3)n2cc1S(=O)(=O)C(C)(C)C [Example 290, N-(5-(6-(tert-butylsulfonyl)-7-methoxyimidazo[1,2-a]pyridin-3-yl)-3-fluoro-2-methoxyphenyl)-2-methyloxazole-5-sulfonamide] | – | < 30% | > 20 nM | > 1000 nM
7 | COc1cc2ncc(-c3cc(F)c(OC)c(NS(=O)(=O)c4csc(C)n4)c3)n2cc1S(=O)(=O)C(C)(C)C [Example 291, N-(5-(6-(tert-butylsulfonyl)-7-methoxyimidazo[1,2-a]pyridin-3-yl)-3-fluoro-2-methoxyphenyl)-2-methylthiazole-4-sulfonamide] | – | 55 to 80% | < 1 nM | < 50 nM
8 | COc1cc2ncc(-c3cc(F)c(OC)c(NS(=O)(=O)c4cc(C)sn4)c3)n2cc1S(=O)(=O)C(C)(C)C [Example 292, N-(5-(6-(tert-butylsulfonyl)-7-methoxyimidazo[1,2-a]pyridin-3-yl)-3-fluoro-2-methoxyphenyl)-5-methylisothiazole-3-sulfonamide] | – | 30 to 55% | < 1 nM | 50 to 250 nM
9 | COc1cc2ncc(-c3cc(F)c(OC)c(NS(=O)(=O)c4coc(C)n4)c3)n2cc1S(=O)(=O)C(C)(C)C [Example 293, N-(5-(6-(tert-butylsulfonyl)-7-methoxyimidazo[1,2-a]pyridin-3-yl)-3-fluoro-2-methoxyphenyl)-2-methyloxazole-4-sulfonamide] | – | 30 to 55% | < 1 nM | < 50 nM
10 | COc1cc2ncc(-c3cccc(NS(=O)(=O)c4cnn(C)c4)c3)n2cc1S(=O)(=O)C(C)(C)C [Example 294, N-(3-(6-(tert-butylsulfonyl)-7-methoxyimidazo[1,2-a]pyridin-3-yl)phenyl)-1-methyl-1H-pyrazole-4-sulfonamide] | – | > 80% | < 1 nM | 50 to 250 nM
11 | CC(=O)COc1cc2ncc(-c3cc(Cl)c(N)nc3F)n2cc1S(=O)(=O)C(C)(C)C [Example 300, 1-((3-(6-amino-5-chloro-2-fluoropyridin-3-yl)-6-(tert-butylsulfonyl)imidazo[1,2-a]pyridin-7-yl)oxy)propan-2-one] | – | > 80% | 2.5 to 20 nM | 250 to 1000 nM
12 | COc1cc2ncc(-c3cc(F)c(OC)c(NCc4cnn(C)c4)c3)n2cc1S(=O)(=O)C(C)(C)C [Example 301, 5-(6-(tert-butylsulfonyl)-7-methoxyimidazo[1,2-a]pyridin-3-yl)-3-fluoro-2-methoxy-N-((1-methyl-1H-pyrazol-4-yl)methyl)aniline] | – | 55 to 80% | < 1 nM | 50 to 250 nM

Source: patent US20260137706A1, “METHODS OF TREATING INFLAMMATORY DISEASES” (INTERLINE THERAPEUTICS, INC., priority 2023, published 2026)
